Experimental data reported in ChEMBL document CHEMBL4610033, “(1-4)-Thiodisaccharides as anticancer agents. Part 5. Evaluation of anticancer activity and investigation of mechanism of action” (Bioorg Med Chem Lett, 2020).
Blank lines part the entries; values can stand above or below the molecule they belong to. Active and inactive are the calls of the source. The calls are words filed in the database; no cut-off is given here.

Key:
[1] = Antiproliferative activity against human H6PX cells assessed as reduction in cell viability after 14 hrs by CCK8 assay; format: functional, cell-based
U-87 MG [2] = assay: Antiproliferative activity against human U87 cells assessed as reduction in cell viability after 14 hrs by CCK8 assay; format: functional, cell-based, U-87MG ATCC
[3] = Anticlonogenic activity against human H6PX cells assessed as ratio of the number of colonies to the number of cells seeded at IC20 incubated for 14 days followed by replating and measured after 2 weeks by crystal violet staining based microscopic analysis (reference value: 100%); format: functional
[4] = Anticlonogenic activity against human H7PX cells assessed as ratio of the number of colonies to the number of cells seeded at IC20 incubated for 14 days followed by replating and measured after 2 weeks by crystal violet staining based microscopic analysis (reference value: 100%); format: functional
[5] = Antiproliferative activity against human H7PX cells assessed as reduction in cell viability after 14 hrs by CCK8 assay; format: functional, cell-based
U-87 MG [6] = assay: Anticlonogenic activity against human U87 cells assessed as ratio of the number of colonies to the number of cells seeded at IC20 incubated for 14 days followed by replating and measured after 2 weeks by crystal violet staining based microscopic analysis (reference value: 100%); format: functional, U-87MG ATCC
Homo sapiens [7] = species: Homo sapiens; assay: Inhibition of TrxR in human H7PX cells at IC20 incubated for 1 hr and measured up to 4 hrs by DNTB-reagent based colorimetric assay; format: cell-based
Homo sapiens [8] = species: Homo sapiens; assay: Inhibition of TrxR in human H6PX cells assessed as reduction in intracellular thiol levels at IC20 after 1 hr by DNTB reagent based assay relative to control; format: cell-based; set-up: scale not given: the % may be the effect or the level left
Homo sapiens [9] = species: Homo sapiens; assay: Inhibition of protein synthesis in human H7PX cells at IC20 for 14 hrs in presence of labeled methionine by fluorescence microscopic analysis; format: functional, cell-based
U-87 MG [10] = assay: Induction of apoptosis in human U87 cells assessed as reduction in bcl2 gene expression at IC20 after 4 hrs by RT-PCR analysis relative to untreated control; format: functional, U-87MG ATCC
[11] = Induction of apoptosis in human H6PX cells assessed as increase in FASLG gene expression at IC20 after 4 hrs by RT-PCR analysis relative to untreated control; format: functional
U-87 MG [12] = assay: Induction of endoplasmic reticulum stress in human U87 cells assessed as DDIT3 expression at IC20 after 1 hr by ELISA relative to control; format: functional, U-87MG ATCC
U-87 MG [13] = assay: Induction of endoplasmic reticulum stress in human U87 cells assessed as DNAJC3 expression at IC20 after 2 hrs by ELISA relative to control; format: functional, U-87MG ATCC
U-87 MG [14] = assay: Induction of apoptosis in human U87 cells assessed as increase in FASLG gene expression at IC20 after 4 hrs by RT-PCR analysis relative to untreated control; format: functional, U-87MG ATCC
U-87 MG [15] = assay: Induction of endoplasmic reticulum stress in human U87 cells assessed as PDIA4 expression at IC20 after 1 hr by ELISA relative to control; format: functional, U-87MG ATCC
[16] = Induction of apoptosis in human H7PX cells assessed as increase in FASLG gene expression at IC20 after 4 hrs by RT-PCR analysis relative to untreated control; format: functional
U-87 MG [17] = assay: Induction of endoplasmic reticulum stress in human U87 cells assessed as EDEM expression at IC20 after 1 hr by ELISA relative to control; format: functional, U-87MG ATCC
U-87 MG [18] = assay: Induction of apoptosis in human U87 cells assessed as viable cells at IC20 after 4 hrs by AnnexinV-FITC/PI staining based flow cytometry analysis (reference value: 93.1%); format: functional, U-87MG ATCC
U-87 MG [19] = assay: Induction of endoplasmic reticulum stress in human U87 cells assessed as DNAJC3 expression at IC20 after 1 hr by ELISA relative to control; format: functional, U-87MG ATCC
[20] = Induction of apoptosis in human H7PX cells assessed as reduction in bcl2 gene expression at IC20 after 4 hrs by RT-PCR analysis relative to untreated control; format: functional
Homo sapiens [21] = species: Homo sapiens; assay: Inhibition of TrxR in human H7PX cells at IC20 incubated for 1 hr and measured after 4 hrs by TRFS-GREEN dye based fluorescence microscopic analysis; format: cell-based
U-87 MG [22] = assay: Induction of endoplasmic reticulum stress in human U87 cells assessed as DDIT3 expression at IC20 after 2 hrs by ELISA relative to control; format: functional, U-87MG ATCC
[23] = Drug uptake in human U87 cells after 2 hrs by microbeta liquid scintillation counting analysis; format: ADME, cell-based; conditions: u-87mg atcc
U-87MG ATCC [24] = assay: Inhibition of TrxR in human U87 cells assessed as reduction in intracellular thiol levels at IC20 after 1 hr by DNTB reagent based assay relative to control; format: cell-based; set-up: scale not given: the % may be the effect or the level left
U-87 MG [25] = assay: Induction of endoplasmic reticulum stress in human U87 cells assessed as EDEM expression at IC20 after 2 hrs by ELISA relative to control; format: functional, U-87MG ATCC
[26] = Drug accumulation in human U87 cells after 2 hrs by microbeta liquid scintillation counting analysis; format: ADME, cell-based; conditions: u-87mg atcc
Homo sapiens [27] = species: Homo sapiens; assay: Inhibition of protein synthesis in human H6PX cells at IC20 for 14 hrs in presence of labeled methionine by fluorescence microscopic analysis; format: functional, cell-based
Homo sapiens [28] = species: Homo sapiens; assay: Inhibition of TrxR in human […] cells assessed as reduction in intracellular thiol levels at IC20 after 1 hr by DNTB reagent based assay relative to control; format: cell-based; set-up: scale not given: the % may be the effect or the level left
U-87 MG [29] = assay: Induction of endoplasmic reticulum stress in human U87 cells assessed as GRP78 expression at IC20 after 2 hrs by ELISA relative to control; format: functional, U-87MG ATCC
U-87MG ATCC [30] = assay: Inhibition of TrxR in human U87 cells at IC20 incubated for 1 hr and measured up to 4 hrs by DNTB-reagent based colorimetric assay; format: cell-based
Homo sapiens [31] = species: Homo sapiens; assay: Inhibition of TrxR in human H6PX cells at IC20 incubated for 1 hr and measured up to 4 hrs by DNTB-reagent based colorimetric assay; format: cell-based
U-87 MG [32] = assay: Induction of endoplasmic reticulum stress in human U87 cells assessed as GRP78 expression at IC20 after 1 hr by ELISA relative to control; format: functional, U-87MG ATCC
U-87MG ATCC [33] = assay: Inhibition of TrxR in human U87 cells at IC20 incubated for 1 hr and measured after 4 hrs by TRFS-GREEN dye based fluorescence microscopic analysis; format: cell-based
U-87 MG [34] = assay: Inhibition of protein synthesis in human U87 cells at IC20 for 14 hrs in presence of labeled methionine by fluorescence microscopic analysis; format: functional, cell-based; conditions: U-87MG ATCC
U-87 MG [35] = assay: Induction of ROS generation in human U87 cells at IC20 incubated for 1 hr by CM-H2DCFDA staining based microplate reader analysis; format: functional, cell-based; conditions: U-87MG ATCC
[36] = Induction of apoptosis in human H6PX cells assessed as apoptotic cells at IC20 after 4 hrs by AnnexinV-FITC/PI staining based flow cytometry analysis (reference value: 9.7%); format: functional
[37] = Induction of apoptosis in human H6PX cells assessed as viable cells at IC20 after 4 hrs by AnnexinV-FITC/PI staining based flow cytometry analysis (reference value: 90.3%); format: functional
U-87 MG [38] = assay: Induction of endoplasmic reticulum stress in human U87 cells assessed as PDIA4 expression at IC20 after 2 hrs by ELISA relative to control; format: functional, U-87MG ATCC
[39] = Induction of apoptosis in human H7PX cells assessed as apoptotic cells at IC20 after 4 hrs by AnnexinV-FITC/PI staining based flow cytometry analysis (reference value: 9.6%); format: functional
Homo sapiens [40] = species: Homo sapiens; assay: Inhibition of TrxR in human H6PX cells at IC20 incubated for 1 hr and measured after 4 hrs by TRFS-GREEN dye based fluorescence microscopic analysis; format: cell-based
U-87 MG [41] = assay: Induction of apoptosis in human U87 cells assessed as apoptotic cells at IC20 after 4 hrs by AnnexinV-FITC/PI staining based flow cytometry analysis (reference value: 6.9%); format: functional, U-87MG ATCC
[42] = Induction of apoptosis in human H6PX cells assessed as reduction in bcl2 gene expression at IC20 after 4 hrs by RT-PCR analysis relative to untreated control; format: functional
[43] = Induction of apoptosis in human H7PX cells assessed as viable cells at IC20 after 4 hrs by AnnexinV-FITC/PI staining based flow cytometry analysis (reference value: 90.4%); format: functional

IC50 (U-87 MG [2]): 922 µM
Structure (SMILES): O=C(O)c1ccccc1S[C@@H]1CC(=O)[C@@H]2OC[C@H]1O2
IC20 [1]: 922 µM
IC50 [1]: 955 µM
IC20 (U-87 MG [2]): 784 µM
Activity [3]: 75%
Activity [4]: 98%
IC20 [5]: 654 µM
IC50 [5]: 736 µM
Activity (U-87 MG [6]): 86%

IC50 (U-87 MG [2]): 65.2 µM
Drug uptake [23]: Active
Drug uptake [26]: Not Active
Structure (SMILES): CC(=O)OC[C@H]1O[C@@H](S[C@@H]2CC(=O)[C@@H]3OC[C@H]2O3)[C@H](OC(C)=O)[C@@H](OC(C)=O)[C@@H]1OC(C)=O
IC20 [1]: 113 µM
IC50 [1]: 133 µM
inhibition (Homo sapiens [7]): Active
IC20 (U-87 MG [2]): 51.4 µM
Activity (Homo sapiens [8]): 22.3%
inhibition (Homo sapiens [9]): Active
fold change (FC) (U-87 MG [10]): -0.35
fold change (FC) [11]: 4.46
fold change (FC) (U-87 MG [12]): 7.01
fold change (FC) (U-87 MG [13]): 2.43
Activity [3]: 46%
fold change (FC) (U-87 MG [14]): 3.25
fold change (FC) (U-87 MG [15]): 1.9
fold change (FC) [16]: 6.12
fold change (FC) (U-87 MG [17]): 2.39
Activity (U-87 MG [18]): 37.8%
fold change (FC) (U-87 MG [19]): 1.07
fold change (FC) [20]: -0.69
inhibition (Homo sapiens [21]): Active
fold change (FC) (U-87 MG [22]): 0.11
Activity [4]: 63%
Activity (U-87MG ATCC [24]): 11.8%
fold change (FC) (U-87 MG [25]): 1.1
inhibition (Homo sapiens [27]): Active
Activity (Homo sapiens [28]): 19.7%
fold change (FC) (U-87 MG [29]): 1.38
inhibition (U-87MG ATCC [30]): Active
inhibition (Homo sapiens [31]): Active
fold change (FC) (U-87 MG [32]): 1.81
inhibition (U-87MG ATCC [33]): Active
inhibition (U-87 MG [34]): Active
Activity (U-87 MG [35]): Active
IC20 [5]: 134 µM
IC50 [5]: 158 µM
Activity [36]: 80.4%
Activity [37]: 19.6%
fold change (FC) (U-87 MG [38]): 1.24
Activity [39]: 43.3%
inhibition (Homo sapiens [40]): Active
Activity (U-87 MG [6]): 40%
Activity (U-87 MG [41]): 62.2%
fold change (FC) [42]: -0.4
Activity [43]: 56.7%
